The text below walks through data of PubChem BioAssay AID256 (DTP/NCI, 2004).

This assay concerns CD2F1 mice, L1210 leukemia ip, survival T/C. The experiment in a line: NCI In Vivo Anticancer Drug Screen. Data for tumor model L1210 Leukemia (intraperitoneal) in CD2F1 (CDF1) mice. Particulars: higher = longer survival. The method, boiled down:
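Implant tumor; dose compound or vehicle; measure endpoint in both groups; report treated divided by control.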

Setting [1] is: endpoint: mean survival time, dose: 200.0 mg/kg/injection, schedule: Q01DX001 (ip), vehicle: saline with Tween-80.
The mark [2] stands for this setting: endpoint: mean survival time, dose: 400.0 mg/kg/injection, schedule: Q01DX001 (ip), vehicle: saline with Tween-80.
Where [3] appears, read: endpoint: mean survival time, dose: 100.0 mg/kg/injection, schedule: Q01DX009 (ip), vehicle: saline with Tween-80.
The mark [4] stands for this setting: endpoint: mean survival time, dose: 100.0 mg/kg/injection, schedule: Q04DX003 (ip), vehicle: saline with Tween-80.
The mark [5] stands for this setting: endpoint: mean survival time, dose: 200.0 mg/kg/injection, schedule: Q04DX003 (ip), vehicle: saline with Tween-80.
The mark [6] stands for this setting: endpoint: mean survival time, dose: 400.0 mg/kg/injection, schedule: Q01DX009 (ip), vehicle: saline with Tween-80.
Setting [7] is: endpoint: mean survival time, dose: 400.0 mg/kg/injection, schedule: Q04DX003 (ip), vehicle: saline with Tween-80.

Structures are written as SMILES. Several values for one entry are separate records, joined by “and”; a condition that tells them apart may be missing. Equal entries are not always repeated. Toxic doses and inconclusive results are not listed.

For the compound `CC1(Br)OC(=O)CC1Br` (stereo unspecified), the T/C was 106 % of control (endpoint: mean survival time, dose: 100.0 mg/kg/injection, schedule: Q04DX002 (ip), vehicle: saline with Tween-80) and 91 % of control (endpoint: mean survival time, dose: 200.0 mg/kg/injection, schedule: Q04DX002 (ip), vehicle: saline with Tween-80).

In the case of `CCc1nc(N)nc(N)c1-c1ccc(Cl)cc1`, the T/C runs as follows: (endpoint: mean survival time, dose: 2.0 mg/kg/injection, schedule: Q03HX008 (ip), vehicle: saline) 92 % of control; (endpoint: mean survival time, dose: 2.0 mg/kg/injection, schedule: Q03HX016 (ip), vehicle: saline) 89 % of control; (endpoint: mean survival time, dose: 2.0 mg/kg/injection, schedule: Q03HX024 (ip), vehicle: saline) 88 % of control; (endpoint: mean survival time, dose: 4.0 mg/kg/injection, schedule: Q03HX008 (ip), vehicle: saline) 90 % of control; (endpoint: mean survival time, dose: 4.0 mg/kg/injection, schedule: Q03HX016 (ip), vehicle: saline) 91 % of control; (endpoint: mean survival time, dose: 4.0 mg/kg/injection, schedule: Q03HX024 (ip), vehicle: saline) 86 % of control. The T/C (endpoint: mean survival time, dose: 8.0 mg/kg/injection, schedule: Q01DX009 (oral), vehicle: saline) is 92 % of control; the T/C (endpoint: mean survival time, dose: 8.0 mg/kg/injection, schedule: Q03HX008 (ip), vehicle: saline) was 92 % of control; the T/C (endpoint: mean survival time, dose: 8.0 mg/kg/injection, schedule: Q03HX016 (ip), vehicle: saline) is 87 % of control; the T/C (endpoint: mean survival time, dose: 8.0 mg/kg/injection, schedule: Q03HX024 (ip), vehicle: saline) was 88 % of control and 93 % of control; the T/C (endpoint: mean survival time, dose: 16.0 mg/kg/injection, schedule: Q01DX001 (ip), vehicle: saline) is 107 % of control; the T/C (endpoint: mean survival time, dose: 16.0 mg/kg/injection, schedule: Q01DX001 (oral), vehicle: saline) is 101 % of control. Besides, the T/C by setting is: (endpoint: mean survival time, dose: 16.0 mg/kg/injection, schedule: Q01DX009 (ip), vehicle: saline) 101 % of control; (endpoint: mean survival time, dose: 16.0 mg/kg/injection, schedule: Q01DX009 (oral), vehicle: saline) 95 % of control; (endpoint: mean survival time, dose: 16.0 mg/kg/injection, schedule: Q03HX008 (ip), vehicle: saline) 89 % of control and 91 % of control; (endpoint: mean survival time, dose: 16.0 mg/kg/injection, schedule: Q03HX016 (ip), vehicle: saline) 91 % of control and 100 % of control; (endpoint: mean survival time, dose: 16.0 mg/kg/injection, schedule: Q03HX024 (ip), vehicle: saline) 90 % of control and 96 % of control; (endpoint: mean survival time, dose: 16.0 mg/kg/injection, schedule: Q04DX003 (ip), vehicle: saline) 88 % of control. For the same compound, the T/C (endpoint: mean survival time, dose: 16.0 mg/kg/injection, schedule: Q08DX002 (ip), vehicle: saline) is 97 % of control; the T/C (endpoint: mean survival time, dose: 32.0 mg/kg/injection, schedule: Q01DX001 (ip), vehicle: saline) is 98 % of control; the T/C (endpoint: mean survival time, dose: 32.0 mg/kg/injection, schedule: Q01DX001 (oral), vehicle: saline) is 96 % of control; the T/C (endpoint: mean survival time, dose: 32.0 mg/kg/injection, schedule: Q01DX009 (ip), vehicle: saline) is 106 % of control; the T/C (endpoint: mean survival time, dose: 32.0 mg/kg/injection, schedule: Q01DX009 (oral), vehicle: saline) was 112 % of control; the T/C (endpoint: mean survival time, dose: 32.0 mg/kg/injection, schedule: Q04DX003 (ip), vehicle: saline) is 87 % of control. Also, the T/C runs as follows: (endpoint: mean survival time, dose: 32.0 mg/kg/injection, schedule: Q08DX002 (ip), vehicle: saline) 94 % of control; (endpoint: mean survival time, dose: 64.0 mg/kg/injection, schedule: Q01DX001 (ip), vehicle: saline) 100 % of control; (endpoint: mean survival time, dose: 64.0 mg/kg/injection, schedule: Q01DX001 (oral), vehicle: saline) 98 % of control; (endpoint: mean survival time, dose: 64.0 mg/kg/injection, schedule: Q01DX009 (ip), vehicle: saline) 108 % of control; (endpoint: mean survival time, dose: 64.0 mg/kg/injection, schedule: Q01DX009 (oral), vehicle: saline) 120 % of control and 96 % of control; (endpoint: mean survival time, dose: 64.0 mg/kg/injection, schedule: Q04DX003 (ip), vehicle: saline) 86 % of control and 95 % of control. Besides, the T/C (endpoint: mean survival time, dose: 64.0 mg/kg/injection, schedule: Q08DX002 (ip), vehicle: saline) was 95 % of control; the T/C (endpoint: mean survival time, dose: 128.0 mg/kg/injection, schedule: Q01DX001 (ip), vehicle: saline) was 100 % of control; the T/C (endpoint: mean survival time, dose: 128.0 mg/kg/injection, schedule: Q01DX001 (oral), vehicle: saline) is 91 % of control; the T/C (endpoint: mean survival time, dose: 128.0 mg/kg/injection, schedule: Q04DX003 (ip), vehicle: saline) is 96 % of control; the T/C (endpoint: mean survival time, dose: 128.0 mg/kg/injection, schedule: Q08DX002 (ip), vehicle: saline) was 93 % of control and 101 % of control.

With `O=C(Nc1cccnc1)c1ccc([N+](=O)[O-])s1`, the T/C is, setting by setting: (endpoint: mean survival time, dose: 50.0 mg/kg/injection, schedule: Q01DX005 (ip), vehicle: saline + alcohol) 111 % of control; (endpoint: mean survival time, dose: 50.0 mg/kg/injection, schedule: Q01DX005 (ip), vehicle: saline) 110 % of control; (endpoint: mean survival time, dose: 100.0 mg/kg/injection, schedule: Q01DX005 (ip), vehicle: saline + alcohol) 121 % of control; (endpoint: mean survival time, dose: 100.0 mg/kg/injection, schedule: Q01DX005 (ip), vehicle: saline) 160 % of control; (endpoint: mean survival time, dose: 200.0 mg/kg/injection, schedule: Q01DX005 (ip), vehicle: saline + alcohol) 107 % of control; (endpoint: mean survival time, dose: 200.0 mg/kg/injection, schedule: Q01DX005 (ip), vehicle: saline) 122 % of control. For the same compound, the T/C by setting is: (endpoint: median survival time, dose: 25.0 mg/kg/injection, schedule: Q01DX005 (ip), vehicle: saline) 119 % of control; (endpoint: median survival time, dose: 36.0 mg/kg/injection, schedule: Q01DX005 (ip), vehicle: saline) 115 % of control; (endpoint: median survival time, dose: 50.0 mg/kg/injection, schedule: Q01DX005 (ip), vehicle: saline) 116 % of control; (endpoint: median survival time, dose: 60.0 mg/kg/injection, schedule: Q01DX005 (ip), vehicle: saline) 121 % of control.

With `CN(C)N=C1CCC2(CC1)c1ccccc1-c1ccccc12`, the T/C runs as follows: under setting [1], 88 % of control; under setting [2], 87 % of control.

As for `CCCCCCC(=O)CC(SCC)c1ccccc1Cl` (stereo unspecified), the T/C is, setting by setting: (endpoint: median survival time, dose: 25.0 mg/kg/injection, schedule: Q01DX009 (ip), vehicle: saline with Tween-80) 100 % of control; (endpoint: median survival time, dose: 50.0 mg/kg/injection, schedule: Q01DX009 (ip), vehicle: saline with Tween-80) 104 % of control; (endpoint: median survival time, dose: 100.0 mg/kg/injection, schedule: Q01DX009 (ip), vehicle: saline with Tween-80) 100 % of control; (endpoint: median survival time, dose: 200.0 mg/kg/injection, schedule: Q01DX009 (ip), vehicle: saline with Tween-80) 97 % of control; (endpoint: median survival time, dose: 400.0 mg/kg/injection, schedule: Q01DX009 (ip), vehicle: saline with Tween-80) 98 % of control.

On to `Cc1c(C(=O)c2no[n+]([O-])c2C(=O)c2c(C)c([N+](=O)[O-])c(C)c([N+](=O)[O-])c2C)c(C)c([N+](=O)[O-])c(C)c1[N+](=O)[O-]`, for which the T/C reads like this: under setting [3], 87 % of control; under setting [4], 102 % of control; (endpoint: mean survival time, dose: 200.0 mg/kg/injection, schedule: Q01DX009 (ip), vehicle: saline with Tween-80) 96 % of control; under setting [5], 88 % of control; under setting [6], 88 % of control; under setting [7], 98 % of control.

`CSc1cc(C)[o+]c(C)c1`: the T/C is 94 % of control (endpoint: mean survival time, dose: 12.5 mg/kg/injection, schedule: Q01DX009 (ip), vehicle: Klucel (hydroxypropylcellulose) (HPC)); 97 % of control (endpoint: mean survival time, dose: 25.0 mg/kg/injection, schedule: Q01DX009 (ip), vehicle: Klucel (hydroxypropylcellulose) (HPC)); 108 % of control (endpoint: mean survival time, dose: 50.0 mg/kg/injection, schedule: Q01DX009 (ip), vehicle: Klucel (hydroxypropylcellulose) (HPC)); 113 % of control (endpoint: mean survival time, dose: 100.0 mg/kg/injection, schedule: Q01DX009 (ip), vehicle: Klucel (hydroxypropylcellulose) (HPC)); 117 % of control (endpoint: mean survival time, dose: 200.0 mg/kg/injection, schedule: Q01DX009 (ip), vehicle: Klucel (hydroxypropylcellulose) (HPC)).

For the compound `C/C(=N/NC(=O)c1ccccc1)c1cccc(O)c1`, the T/C is 89 % of control under setting [3]; 94 % of control under setting [4]; 90 % of control under setting [5]; 103 % of control under setting [6]; 97 % of control under setting [7].

As to `CCSC(=S)S`, the T/C was 104 % of control (endpoint: mean survival time, dose: 75.0 mg/kg/injection, schedule: Q04DX003 (ip), vehicle: saline); 98 % of control (endpoint: mean survival time, dose: 150.0 mg/kg/injection, schedule: Q04DX003 (ip), vehicle: saline); 104 % of control (endpoint: mean survival time, dose: 300.0 mg/kg/injection, schedule: Q04DX003 (ip), vehicle: saline).

On to `Cc1cc(N)c(S(N)(=O)=O)c([N+](=O)[O-])c1`, for which the T/C was 100 % of control (endpoint: mean survival time, dose: 100.0 mg/kg/injection, schedule: Q01DX001 (ip), vehicle: saline with Tween-80); 97 % of control under setting [1]; 94 % of control under setting [2].
